From PMC8940841, “A metabolically stable PET tracer for imaging synaptic vesicle protein 2A: synthesis and preclinical characterization of [^18F]SDM-16” (European Journal of Nuclear Medicine and Molecular Imaging, 2021)

Legend:
SV2A = assay: Brain PET imaging with 1TC kinetic modeling; conditions: for VT (baseline): 1TC
Procedure: (§1) A total of 10 PET imaging experiments with [^18F]SDM-16 were performed in rhesus monkeys (Macaca mulatta) according to a protocol approved by the Yale University Institutional Animal Care and Use Committee (IACUC). Four monkeys were studied. […] Body temperature was maintained by a water-jacket heating pad. The animal was attached to a physiological monitor, and vital signs (heart rate, blood pressure, respirations, SPO2, EKG, ETCO2, and body temperature) were continuously monitored. A venous line was inserted in one limb for administration of radiotracer, displacement, and blocking drugs. A catheter was placed in the femoral artery in the other limb for blood sampling. Dynamic PET brain scans were performed on a Focus 220 system (Siemens Medical Solutions, Knoxville, TN, USA) with a reconstructed image resolution of approximately 1.5 mm. After a 9-min transmission scan, the radioligand was injected i.v. over 3 min. by an infusion pump. Dynamic PET scans were performed for 3 h (baseline and blocking scans) or 4 h (displacement scan).
(§2) PET images were reconstructed with built-in corrections for attenuation, normalization, scatter, randoms, and deadtime. PET brain images were registered to the animal’s MR image, which was subsequently registered to a brain atlas to define the regions of interest. Dynamic images were reconstructed using a Fourier rebinning and filtered back projection algorithm. A rhesus monkey brain atlas was used for generation of regions of interest (ROIs) and time − activity curves (TACs) for the following ROIs: amygdala, brain stem, caudate nucleus, centrum semiovale (CS), cerebellum, cingulate cortex, frontal cortex, globus pallidus, hippocampus, insula, nucleus accumbens, occipital cortex, pons, putamen, substantia nigra, temporal cortex, and thalamus.
(§3) Volume of distribution (VT, mL·cm^−3) values and the first-order kinetic rate constants of tracer (K1) were derived through 1-tissue (1T) compartment kinetic modeling with the metabolite-corrected arterial plasma input function, which was calculated as the product of the fitted total plasma curve and the parent radiotracer fraction curve. Nondisplaceable volume of distribution (VND) and SV2A occupancy by LEV was calculated using the Lassen plot [32]. Nondisplaceable binding potential (BPND) values were calculated from VT values using CS as reference region, or the VND derived from the blocking study, i.e., BPND = (VT, ROI − VT, CS)/ VT, CS or BPND = (VT/VND) -1.

[1] = Brain PET imaging with 1TC kinetic modeling; conditions: rhesus monkey, intravenous; for Kp / half-life: both
Procedure: as §1, §2, §3

[2] = Radiation dosimetry from whole-body PET biodistribution; type: in vivo, rhesus monkeys; conditions: for maximum permissible single-study dosage: urinary bladder wall critical organ, 21 CFR 361.1
Procedure: Two whole-body biodistribution studies were performed in two rhesus monkeys (9.4 kg female and 17.0 kg male) to estimate human organ radiation dosimetry. Scans were carried out on a Biograph mCT (hybrid PET/CT, Siemens Medical Systems, Knoxville, TN) scanner following i.v. injections of 187.6 MBq (5.1 mCi) and 173.9 MBq (4.7 mCi) [^18F]SDM-16, and mass doses of 0.27 µg and 0.24 µg at time of injection, respectively. Monkeys were scanned for about 4 h in a sequence of 22–24 passes from top of the head to the mid-thigh. Scans were reconstructed and visually inspected for organ activity concentrations exceeding background level. The organs included were the brain, heart, liver, gall bladder, spleen, kidneys, and urinary bladder contents. Regions of interest were delineated on these organs, and mean activity values were computed to form TACs.
Within-pass decay correction was removed to reflect the actual activity in each organ, and cumulative activity (Bq^.h/cm^3) computed by integration of the data from the scan. The tail portions beyond the end of the scan were extrapolated assuming only physical decay of the tracer. These values were multiplied by the organ volumes of a standard 55-kg adult female reference and 70-kg adult male mathematical phantom, and then normalized to injected activity to obtain organ residence times (N, h). Final values were then entered into the OLINDA software to obtain absorbed doses in all organs, which were computed with different voiding assumptions.

## Cc1nccn1CN1C[C@@H](c2cc(F)cc([18F])c2)CC1=O [[^18F]SDM-16, (R)-4-(3-fluoro-5-(fluoro-^18F)phenyl)-1-((2-methyl-1H-imidazol-1-yl)methyl)pyrrolidin-2-one]
SV2A; Amygdala
  K1: 0.10 ± 0.02 mL/cm^3 per min
  VT (baseline): 11.2 ± 2.0 mL/cm^3
SV2A; Anterior cingulate
  K1: 0.15 ± 0.01 mL/cm^3 per min
SV2A; Brainstem
  K1: 0.14 ± 0.02 mL/cm^3 per min
  VT (baseline): 14.1 ± 1.7 mL/cm^3
SV2A; Caudate
  K1: 0.13 ± 0.02 mL/cm^3 per min
SV2A; Centrum semiovale
  VT (baseline): 6.6 ± 0.9 mL/cm^3
SV2A; Cerebellum
  K1: 0.18 ± 0.02 mL/cm^3 per min
SV2A; Cingulate cortex
  K1: 0.15 ± 0.00 mL/cm^3 per min
  VT (baseline): 31.3 ± 7.8 mL/cm^3
SV2A; Frontal cortex
  K1: 0.14 ± 0.00 mL/cm^3 per min
  VT (baseline): 27.9 ± 6.8 mL/cm^3
SV2A; Globus pallidus
  K1: 0.11 ± 0.01 mL/cm^3 per min
  VT (baseline): 17.2 ± 3.5 mL/cm^3
SV2A; Hippocampus
  K1: 0.12 ± 0.02 mL/cm^3 per min
  VT (baseline): 17.9 ± 2.5 mL/cm^3
SV2A; Insular cortex
  K1: 0.14 ± 0.01 mL/cm^3 per min
  VT (baseline): 29.8 ± 8.0 mL/cm^3
SV2A; Mean ± SD over brain regions
  K1: 0.14 ± 0.03 mL/cm^3 per min
SV2A; Nucleus accumbens
  K1: 0.13 ± 0.01 mL/cm^3 per min
  VT (baseline): 29.4 ± 8.5 mL/cm^3
SV2A; Occipital cortex
  K1: 0.18 ± 0.02 mL/cm^3 per min
  VT (baseline): 29.5 ± 5.5 mL/cm^3
SV2A; Putamen
  K1: 0.16 ± 0.02 mL/cm^3 per min
SV2A; Temporal cortex
  K1: 0.14 ± 0.01 mL/cm^3 per min
  VT (baseline): 27.3 ± 5.7 mL/cm^3
SV2A; Thalamus
  K1: 0.14 ± 0.02 mL/cm^3 per min
SV2A; baseline scan, end of scan, frontal cortex and putamen
  SUV (brain tracer uptake): about 10
SV2A; rhesus monkey, in vivo
  averaged VT as percent of that of [^11C]UCB-A: 59%
  regional K1 lower than [^11C]UCB-J: 82%
  regional K1 lower than [^18F]SynVesT-1: 86%
SV2A; up to 4-h p.i.
  in vivo defluorination (radioactivity in skull): lack of in vivo defluorination
[1]; brain (caudate)
  Kp: 21.6 ± 4.9
[1]; brain (centrum semiovale)
  Kp: 6.6
  half-life: 1.38 ± 0.3 h
[1]; brain (cerebellum)
  Kp: 21.5 ± 3
[1]; brain (cingulate cortex)
  Kp: 31.3
[1]; brain (insular cortex)
  half-life: 2.53 ± 0.817 h
[1]; brain (putamen)
  Kp: 26 ± 6.8
[1]; brain (thalamus)
  Kp: 21.6 ± 4.9
[1]; brain tissue
  fraction unbound: 0.27
[2]; 185 MBq (5 mCi)
  total ED of a single-study dosage: 3.9 mSv
[2]; Adrenals, adult female phantom
  mean organ radiation dose estimate: 0.0157 mGv/MBq
[2]; Adrenals, adult male phantom
  mean organ radiation dose estimate: 0.0135 mGv/MBq
[2]; Brain, adult female phantom
  mean organ radiation dose estimate: 0.1032 mGv/MBq
[2]; Brain, adult male phantom
  mean organ radiation dose estimate: 0.0732 mGv/MBq
[2]; Breasts, adult female phantom
  mean organ radiation dose estimate: 0.0087 mGv/MBq
[2]; Breasts, adult male phantom
  mean organ radiation dose estimate: 0.0073 mGv/MBq
[2]; Gall Bladder, Female
  average residence time N: 0.015 h
[2]; Gall Bladder, Male
  average residence time N: 0.021 h
[2]; Gallbladder Wall, adult female phantom
  mean organ radiation dose estimate: 0.0441 mGv/MBq
[2]; Gallbladder Wall, adult male phantom
  mean organ radiation dose estimate: 0.0484 mGv/MBq
[2]; Heart Wall, adult female phantom
  mean organ radiation dose estimate: 0.0158 mGv/MBq
[2]; Heart Wall, adult male phantom
  mean organ radiation dose estimate: 0.0137 mGv/MBq
[2]; Heart, Female
  average residence time N: 0.015 h
[2]; Heart, Male
  average residence time N: 0.017 h
[2]; Kidneys, adult female phantom
  mean organ radiation dose estimate: 0.0454 mGv/MBq
[2]; Kidneys, adult male phantom
  mean organ radiation dose estimate: 0.0478 mGv/MBq
[2]; LLI Wall, adult female phantom
  mean organ radiation dose estimate: 0.0145 mGv/MBq
[2]; LLI Wall, adult male phantom
  mean organ radiation dose estimate: 0.0114 mGv/MBq
[2]; Liver, adult female phantom
  mean organ radiation dose estimate: 0.0538 mGv/MBq
[2]; Liver, adult male phantom
  mean organ radiation dose estimate: 0.0454 mGv/MBq
[2]; Lungs, adult female phantom
  mean organ radiation dose estimate: 0.0116 mGv/MBq
[2]; Lungs, adult male phantom
  mean organ radiation dose estimate: 0.0096 mGv/MBq
[2]; Muscle, adult female phantom
  mean organ radiation dose estimate: 0.0110 mGv/MBq
[2]; Muscle, adult male phantom
  mean organ radiation dose estimate: 0.0093 mGv/MBq
[2]; Osteogenic Cells, adult female phantom
  mean organ radiation dose estimate: 0.0188 mGv/MBq
[2]; Osteogenic Cells, adult male phantom
  mean organ radiation dose estimate: 0.0147 mGv/MBq
[2]; Ovaries, adult female phantom
  mean organ radiation dose estimate: 0.0147 mGv/MBq
[2]; Pancreas, adult female phantom
  mean organ radiation dose estimate: 0.0154 mGv/MBq
[2]; Pancreas, adult male phantom
  mean organ radiation dose estimate: 0.0134 mGv/MBq
[2]; Red Marrow, adult female phantom
  mean organ radiation dose estimate: 0.0120 mGv/MBq
[2]; Red Marrow, adult male phantom
  mean organ radiation dose estimate: 0.0098 mGv/MBq
[2]; Remainder, Female
  average residence time N: 1.504 h
[2]; Remainder, Male
  average residence time N: 1.608 h
[2]; Skin, adult female phantom
  mean organ radiation dose estimate: 0.0087 mGv/MBq
[2]; Skin, adult male phantom
  mean organ radiation dose estimate: 0.0073 mGv/MBq
[2]; Small Intestine, adult female phantom
  mean organ radiation dose estimate: 0.0130 mGv/MBq
[2]; Small Intestine, adult male phantom
  mean organ radiation dose estimate: 0.0116 mGv/MBq
[2]; Spleen, adult female phantom
  mean organ radiation dose estimate: 0.0122 mGv/MBq
[2]; Spleen, adult male phantom
  mean organ radiation dose estimate: 0.0104 mGv/MBq
[2]; Stomach Wall, adult female phantom
  mean organ radiation dose estimate: 0.0125 mGv/MBq
[2]; Stomach Wall, adult male phantom
  mean organ radiation dose estimate: 0.0107 mGv/MBq
[2]; Sum, Female
  average residence time N: 2.621 h
[2]; Sum, Male
  average residence time N: 2.621 h
[2]; Testes, adult male phantom
  mean organ radiation dose estimate: 0.0090 mGv/MBq
[2]; Thymus, adult female phantom
  mean organ radiation dose estimate: 0.0107 mGv/MBq
[2]; Thymus, adult male phantom
  mean organ radiation dose estimate: 0.0089 mGv/MBq
[2]; Thyroid, adult female phantom
  mean organ radiation dose estimate: 0.0101 mGv/MBq
[2]; Thyroid, adult male phantom
  mean organ radiation dose estimate: 0.0098 mGv/MBq
[2]; Total Body, adult female phantom
  mean organ radiation dose estimate: 0.0146 mGv/MBq
[2]; Total Body, adult male phantom
  mean organ radiation dose estimate: 0.0119 mGv/MBq
[2]; ULI Wall, adult female phantom
  mean organ radiation dose estimate: 0.0141 mGv/MBq
[2]; ULI Wall, adult male phantom
  mean organ radiation dose estimate: 0.0119 mGv/MBq
[2]; Urinary Bladder Wall, adult female phantom
  mean organ radiation dose estimate: 0.1368 mGv/MBq
[2]; Urinary Bladder Wall, adult male phantom
  mean organ radiation dose estimate: 0.0762 mGv/MBq
[2]; Urinary Bladder, Female
  average residence time N: 0.193 h
[2]; Urinary Bladder, Male
  average residence time N: 0.143 h
[2]; Uterus, adult female phantom
  mean organ radiation dose estimate: 0.0180 mGv/MBq
[2]; adult female phantom
  Effective Dose: 0.0211 mGv/MBq
  Effective Dose Equivalent: 0.0316 mGv/MBq
[2]; adult male phantom
  Effective Dose: 0.0156 mGv/MBq
  Effective Dose Equivalent: 0.0246 mGv/MBq
[2]; brain, female
  absorbed dose: 0.1032 mGy/MBq
  average residence time N: 0.532 h
[2]; brain, male
  absorbed dose: 0.0732 mGy/MBq
  average residence time N: 0.430 h
[2]; female
  effective dose (ED): 21.1 µSv/MBq
  maximum permissible single-study dosage: 365.6 MBq
[2]; gallbladder wall, female
  absorbed dose: 0.0441 mGy/MBq
[2]; gallbladder wall, male
  absorbed dose: 0.0484 mGy/MBq
[2]; kidneys, female
  absorbed dose: 0.0454 mGy/MBq
  average residence time N: 0.057 h
[2]; kidneys, male
  absorbed dose: 0.0478 mGy/MBq
  average residence time N: 0.067 h
[2]; liver, female
  absorbed dose: 0.0538 mGy/MBq
  average residence time N: 0.305 h
[2]; liver, male
  absorbed dose: 0.0454 mGy/MBq
  average residence time N: 0.335 h
[2]; male
  effective dose (ED): 15.6 µSv/MBq
  maximum permissible single-study dosage: 656.0 MBq
[2]; urinary bladder wall, female
  absorbed dose: 0.1368 mGy/MBq
[2]; urinary bladder wall, male
  absorbed dose: 0.0762 mGy/MBq
